≈ marks a conversion by molar mass, not a printed value.
Test system: KB cells
Experiment: Growth Inhibition Action on KB cell (in vitro)
Type: cell-based
Conditions: Homo sapiens, 72 hours incubation, MTT absorbance, final DMSO 0.5%, read-out: IC50 (concentration of 50% growth inhibition) on KB cells
Experimental: Experiment: Growth Inhibition Action on KB cell (in vitro)
1×10^3 of KB cells/0.1 ml of a cell suspension in MEM medium containing 10% fetal bovine serum was placed in each well of a plate with 96 flat bottom wells, and incubated for 24 hours. This was dissolved in dimethylsulfoxide, and 100 μl of a solution (final concentration of dimethylsulfoxide: 0.5%) of a test compound diluted with the medium was added thereto, followed by incubation for 72 hours. After incubation, 4,5-dimethylthiazol-2-yl-2,5-diphenyltetrazolium bromide reagent (a color reagent) was added, and the mixture was further incubated for 4 hours.
100 μl of the medium (final concentration of dimethylsulfoxide:0.5%) was added as a control, and incubated in a similar manner. After incubation, the medium was removed, and the cells were dissolved in 150 μl of dimethylsulfoxide and the absorbance was determined. The ratio of the absorbance of the group treated with the test compound to that of the control group was determined, and the concentration of 50% growth inhibition (IC50) was calculated.

`CC(C)C[C@@H](O)[C@@]1([C@H]2CC[C@H]3[C@@H]4CC[C@H]5CC(=O)CC[C@]5(C)[C@H]4C[C@@H](O)[C@]23C)CO1` [Compound (12a)] was tested, and the IC50 was 0.0965 µg/mL (≈ 0.231 µM).

Source: patent US5712263A, “Steroid derivatives” (Taisho Pharmaceutical Co., Ltd., priority 1993, dated 1998)
